# Literature values in PMC11034360 (RSC Advances, 2024).
# Test system: H460, MDA-MB 468, MDA-MB-231 and glioblastoma (BT-33)
# Conditions: comparison drug for Au(III) complexes; ref 45c
smiles,measurement,value
N.N.[Cl][Pt][Cl] [cisplatin],IC50,4.16 µM
